Experimental data from patent US20100256153A1, “METHODS FOR PREVENTING OR REDUCING RISK OF MORTALITY” (priority 2009, published 2010).

Tests used:
[1] = system: Phase 2b/3 pooled population; test: Pooled analysis of cardiovascular events and death in the Phase 2b/3 clinical studies; type: in vivo, human; details: for CEC-CV death/MI/stroke: CEC-adjudicated; for All MI / All stroke: fatal and/or non-fatal
Protocol: The mortality and adverse CV event data shown in the Tables and Figures herein were analyzed from the Phase 2b and Phase 3 studies (Phase 2b/3).
Mortality incidences caused by stroke, heart attack, heart failure, or blood vessel problems not associated with the heart or brain, were defined as CV death. Death by any means, including CV death, was defined as All-cause Mortality or All-cause death.
Acute CV events, as defined herein, includes all cardiovascular disorders associated with Phase 2b/3 subjects that were diagnosed by a medical physician during the studies as acute and clinically significant including MACE events and also procedures (for example, cardiac bypass surgery) and severe ischemic event such as unstable angina. Primary MACE means non-fatal myocardial infarction (MI), non-fatal stroke, and CV death. Secondary MACE accounts for All-cause deaths (death by any means) in addition to non-fatal MI, non-fatal stroke, and CV death.
First, two physicians at the Clinical Event Center (CEC) of the Duke Clinical Research Institute (Durham, N.C.) served as consultants to the sponsor and performed a retrospective treatment-blinded independent adjudication of all identified potential CV events. […] Adjudication was based on definitions typical for such review and prespecified by the reviewers.

subjects = test: Phase 1-3 clinical development, tolerability; type: in vivo, human
[2] = system: subjects of pooled studies; test: Ischemic serious adverse events (heart or brain related) in pooled studies, Fischer Exact Test analysis (FIG. 12); type: in vivo, human; details: FIG. 12, per 100 comparator
non-diabetic rats = test: Two year survival of non-diabetic rats (FIGS. 7-8); type: in vivo, rat; details: 25 mg/kg/day, two years
Text: (§1) In these studies, approximately sixty animals of each gender were exposed to saxagliptin or two cohorts of placebo over two years, the approximate lifetime of a rodent. […] The differences in survival time between male and female rodents are not currently explained. A possible explanation for the rat results is that the dose taken by male rats, 45 times the human equivalent dose, was closer to the human experience than the same dose taken by female rats, 112 times the human equivalent dose, and therefore the male experience may be more relevant.

non-diabetic mice = test: Two year survival of non-diabetic mice (FIGS. 9-10); type: in vivo, mouse; details: 50 mg/kg/day, two years
Text: as §1

[3] = system: subjects administered sitagliptin or metformin; test: Health insurance data analysis of heart attack, sitagliptin relative to metformin (FIG. 13); type: in vivo, human; details: propensity adjusted, 27,424 sitagliptin vs 80,462 metformin subjects
[4] = All Saxa (2.5, 5, 10, 20, 40, 100 mg/d), N = 3356
[5] = CEC adjudication, all saxagliptin

With `N#C[C@@H]1C[C@@H]2C[C@@H]2N1C(=O)[C@@H](N)C12CC3CC(CC(O)(C3)C1)C2` [saxagliptin, (1S,3S,5S)-2-[(2S)-2-amino-2-(3-hydroxyadamantan-1-yl)acetyl]-2-azabicyclo[3.1.0]hexane-3-carbonitrile] the “subjects having a Primary MACE (CV death/MI/stroke)” value ([1]; ALL SAXA group) was 0.7%, the “Inv-CV death/MI/stroke” value [1, 4] was 23 (0.7) n (%) and the “CEC-CV death/MI/stroke” value [1, 4] was 22 (0.7) n (%). For the same molecule, the All death ([1]; All Saxa, N = 3356) was 10 (0.3) n (%), the “Other CV death” value ([1]; All Saxa, N = 3356) was 4 (0.1) n (%) and the “All MI” value ([1]; All Saxa, N = 3356) was 8 (0.2) n (%). The All stroke ([1]; All Saxa, N = 3356) was 11 (0.3) n (%), the “All Stroke (fatal and non-fatal), proportion of subjects with events” value [1, 5] was 0.3% and the “Other CV death, proportion of subjects with events” value [1, 5] was 0.1%. The “all MI, proportion of subjects with events” value [1, 5] was 0.2%, the “Acute CV Events, Incidence rate ± SE” value ([1]; Phase 2/3 Pooled Population) was 10.7 ± 1.8 events/1000 patient-years and the “Primary MACE, Incidence rate ± SE” value ([1]; Phase 2/3 Pooled Population) was 6.2 ± 1.3 events/1000 patient-years. The “Secondary MACE, Incidence rate ± SE” value ([1]; Phase 2/3 Pooled Population) was 7.0 ± 1.4 events/1000 patient-years, the All death ([1]; Saxa 2.5 mg, N = 937) was 3 (0.3) n (%) and the “Inv-CV death/MI/stroke” value ([1]; Saxa 2.5 mg, N = 937) was 6 (0.6) n (%). The “Other CV death” value ([1]; Saxa 2.5 mg, N = 937) was 0 n (%), the “CEC-CV death/MI/stroke” value ([1]; Saxa 2.5 mg, N = 937) was 6 (0.6) n (%) and the “All MI” value ([1]; Saxa 2.5 mg, N = 937) was 2 (0.2) n (%). The All stroke ([1]; Saxa 2.5 mg, N = 937) was 4 (0.4) n (%), the All death ([1]; Saxa 5 mg, N = 1269) was 3 (0.2) n (%) and the “Inv-CV death/MI/stroke” value ([1]; Saxa 5 mg, N = 1269) was 6 (0.5) n (%). The “Other CV death” value ([1]; Saxa 5 mg, N = 1269) was 0 n (%), the “CEC-CV death/MI/stroke” value ([1]; Saxa 5 mg, N = 1269) was 7 (0.6) n (%) and the “All MI” value ([1]; Saxa 5 mg, N = 1269) was 4 (0.3) n (%). For the same molecule, the All stroke ([1]; Saxa 5 mg, N = 1269) was 4 (0.3) n (%), the All death ([1]; Saxa 10 mg, N = 1000) was 4 (0.4) n (%) and the “Inv-CV death/MI/stroke” value ([1]; Saxa 10 mg, N = 1000) was 11 (1.1) n (%). For the same molecule, the “Other CV death” value ([1]; Saxa 10 mg, N = 1000) was 4 (0.4) n (%), the “CEC-CV death/MI/stroke” value ([1]; Saxa 10 mg, N = 1000) was 9 (0.9) n (%) and the “All MI” value ([1]; Saxa 10 mg, N = 1000) was 2 (0.2) n (%). For the same molecule, the All stroke ([1]; Saxa 10 mg, N = 1000) was 3 (0.3) n (%), the “Proportion of subjects with SAE CHF events” value ([1]; all saxagliptin) was 0.2% and the “overall frequency of CV deaths” value ([1]; all subjects treated with saxagliptin (7/3356)) was 0.2%. The “all cause mortality (death by any means), frequency” value ([1]; all subjects treated with saxagliptin (10/3356)) was 0.3%, the “incidence of MACE events in higher risk subgroups versus control” value ([1]; at least one or two CV risk factors in addition to T2DM, history of hypertension or hypercholesterolemia, males, FIGS. 3, 4) was “lowered incidence MACE events” and the “MACE events incidence rate” value ([1]; subjects with a history of CV disease, FIG. 3) was 9.2 MACE events per 1000 patient-years. The “fatal CHF events” value ([1]; two fatal events in total, both on comparator) was “none”, the “adverse CV effects related to blood pressure or heart rate” value (subjects; Phase 1-3 studies overall) was “did not lead to adverse CV effects” and the tolerability (subjects; maximum oral daily doses 400 mg up to 2 weeks, 100 mg up to 6 weeks, 40 and 20 mg up to 12 weeks, 2.5, 5, 10 mg up to 2 years) was “well tolerated”. The “ischemic SAEs (heart attack or stroke-like events causing death, hospitalization, or near hospitalization), subjects on drug when 100 subjects on comparator had events” value [2] was 57 subjects, the survival versus placebo (non-diabetic rats; female rats, FIG. 8) was “intermediate between the two placebo cohorts” and the survival versus placebo (non-diabetic rats; male rats, FIG. 7) was “reduced risk of mortality or longer survival times”. For the same molecule, the survival versus placebo (non-diabetic mice; female mice, FIG. 9) was “reduced risk of mortality” and the survival versus placebo (non-diabetic mice; male mice, FIG. 10) was “intermediate between the two placebo cohorts”.

In the case of `N[C@@H](CC(=O)N1CCn2c(nnc2C(F)(F)F)C1)Cc1cc(F)c(F)cc1F` [sitagliptin], the “heart attack, subjects on sitagliptin in the time 100 subjects have a heart attack on metformin” value [3] is reported as 65 subjects.

In the case of `N#C[C@@H]1CCCN1C(=O)CNC12CC3CC(CC(O)(C3)C1)C2` [vildagliptin, reference compound], the “ischemic SAEs (heart attack or stroke-like events causing death, hospitalization, or near hospitalization), subjects on drug when 100 subjects on comparator had events” value [2] is reported as 70 subjects.
